{"source": "patent US11248024B2", "about": "“Noxa-derived, cell death-inducing peptide eMTD” (INDUSTRY-ACADEMIC COOPERATION FOUNDATION, CHOSUN UNIVERSITY, priority 2019, dated 2022)", "key": {"HeLa [1]": {"system": "HeLa", "assay": "MTS assay, relative cell viability, HeLa", "type": "cell-based, human", "protocol": "(§1) Individual cell lines (HeLa, CT26, and B16F10) were purchased from the Korean Cell Line Bank. Dulbecco's modified Eagle's medium (DMEM), trypsin-EDTA, fetal bovine serum (FBS), and Hank's balanced salt solution (HBSS) were products from Gibco (Thermo Fisher).\n(§2) Each of the cell lines was cultured in DMEM supplemented with 10% FBS in an incubator maintained at 37° C. and 5% 002.\nFor use in assaying the peptides eMTD (SEQ ID NO: 1) and eMTDΔ4 (SEQ ID NO: 2) synthesized in Example 1 for activity of inducing cell death, the cell line HeLa was grown to about 90% confluency in 96-well plates. The cells were washed once with HBSS buffer before treatment with the peptides of the present disclosure eMTD (SEQ ID NO: 1) and eMTDΔ4 (SEQ ID NO: 2) at concentrations of 0, 20, and 40 for one hour. Thereafter, the cells were incubated with an MTS assay agent (Promega) for one hour, followed by reading absorbance to calculate relative viability of cells.\n(§3) Examination was made to see whether the peptide has the activity of inducing cell death in other cancer cell lines. In this regard, the cancer cell lines HeLa, CT26, and B16F10 were treated with eMTDΔ4 (SEQ ID NO: 2) at concentrations of 0, 20, and 40 μM."}, "CT26": {"system": "CT26", "assay": "MTS assay, relative cell viability, CT26", "type": "cell-based, murine", "protocol": "as §1, §2\nExamination was made to see whether the peptide has the activity of inducing cell death in other cancer cell lines. […]"}, "B16F10": {"system": "B16F10", "assay": "MTS assay, relative cell viability, B16F10", "type": "cell-based, murine", "protocol": "as §1, §2, §3"}, "HeLa cells [2]": {"system": "HeLa cells", "assay": "Intracellular calcium level, Fluo-4, confocal microscope", "type": "cell-based, human", "conditions": "Fluo-4, 20 μM (FIG. 4)", "protocol": "In order to examine the mechanism in which the peptide eMTD (SEQ ID NO: 1) induces cell death in cancer cell lines, a change in intracellular calcium level, which is known as an important factor for cell death, was observed using the calcium indicator Fluo-4 under a confocal microscope (Leica).\nIn brief, HeLa cells were grown to about 70% confluency in a Lab-Tek chamber glass a day before the experiment. Immediately before the experiment, of the calcium indicator Fluo-4 was diluted to a concentration of 5 in HBSS. HeLa cells were incubated with the dilution for 10 min in an incubator and then treated with the peptide eMTDΔ4 (SEQ ID NO: 2)."}, "HeLa cells [3]": {"system": "HeLa cells", "assay": "Mitochondrial PTP opening, calcein AM and cobalt ions", "type": "cell-based, human", "conditions": "calcein AM 1 μM and cobalt ions 2 mM", "protocol": "Mitochondria are known to open permeability transition pores (PTP) to allow cytosolic calcium influx. The observation that eMTDΔ4 (SEQ ID NO: 2) migrates to mitochondria and induces cytosolic calcium influx led to investigating the association of the action of eMTDΔ4 (SEQ ID NO: 2) with PTP. To this end, PTP opening was monitored using calcein AM and cobalt ions.\nIn brief, HeLa cells were grown on a Lab-Tek chamber glass slide one day before the experiment. Immediately before the experiment, the cells were stained with 1 μM of calcein AM and 2 mM of cobalt ions for 20 min and then with 0.1 μM of MitoTracker Red for 2 min. When PTP is opened, mitochondrial calcein AM meets cobalt ions so that the fluorescence of calcein AM is quenched."}, "HeLa cells [4]": {"system": "HeLa cells", "assay": "Mitochondrial ROS generation, MitoSox, confocal", "type": "cell-based, human", "conditions": "MitoSox 5 μM, 10 min, 20 μM peptide (FIG. 8)", "protocol": "In brief, HeLa cells were grown to 70% confluency on a Lab-Tek chamber glass slide one day before the experiment. The cells were stained for 10 min with 5 μM of the mitochondrial ROS indicator MitoSox (Invitrogen) in order to visualize ROS generation. Then, the cells were incubated with eMTDΔ4 (SEQ ID NO: 2) for 10 min during which confocal micrographic images were taken to monitor cell morphologies and ROS generation."}, "[5]": {"assay": "Two-step assay, damage on lipid membrane of liposomes (TbCl3/DPA fluorescence)", "type": "biochemical", "conditions": "for Relative Fluorescence Intensity: liposomes, excitation 276 nm, read at 490 nm", "protocol": "In brief, DOPS, DOPE, and DOPC (Avanti Polar Lipids) were dissolved at the ratio of 2:4:3 in chloroform, followed by vaporization. The residue was again dissolved at the concentration of 2 mg/mL in TbCl3 buffer (15 mM TbCl3, 50 mM sodium citrate, 20 mM HEPES, 150 mM NaCl, pH 7.4). The lipid mixture was extruded by Mini extruder (Avanti Polar Lipids) with a 400 nm to prepare liposomes which were washed with washing buffer (150 mM NaCl, 20 mM HEPES, pH 7.4) and then resuspended in an assay buffer (50 DPA, […], 20 mM HEPES, pH 7.4). The suspension was plated into 96-well plates and treated with 0, 10, or 25 μM of eMTD (SEQ ID NO: 1) or eMTDΔ4 (SEQ ID NO: 2). After stimulation with 276 nm laser, fluorescence was read at 490 nm."}, "MDA-MB-231 cells": {"system": "MDA-MB-231 cells", "assay": "Atomic force microscopy of pores formed on the cell membrane", "type": "cell-based", "protocol": "In this regard, MDA-MB-231 cells were treated with eMTDΔ4 (SEQ ID NO: 2) and pores formed on the cell membrane were observed using an atomic force microscope."}, "HeLa [6]": {"system": "HeLa", "assay": "MTS assay, relative cell viability, HeLa", "type": "cell-based, human", "conditions": "10 μM, Table 4"}}, "note": "Ends that are not written are not given here."}
{"sequence": "KLNFRQKLLNLISKLF [eMTDΔ4]", "values": [{"measurement": "Viability (%)", "setting": "HeLa [1]; 20 μM, Table 4", "value": 11, "unit": "%"}, {"measurement": "Viability (%)", "setting": "HeLa [1]; 20 μM, one hour treatment, Table 3", "value": 53, "unit": "%"}, {"measurement": "Viability (%)", "setting": "HeLa [1]; 40 μM, one hour treatment, Table 3", "value": 40, "unit": "%"}, {"measurement": "cell death activity (in words)", "setting": "HeLa [1]; FIG. 1 and Table 3", "value": "potent cell death activity"}, {"measurement": "induction of cell death (in words)", "setting": "HeLa [1]; FIG. 3 and Table 4", "value": "induce cell death"}, {"measurement": "Viability (%)", "setting": "CT26; CT26, 10 μM", "value": 69, "unit": "%"}, {"measurement": "Viability (%)", "setting": "CT26; CT26, 20 μM", "value": 21, "unit": "%"}, {"measurement": "induction of cell death (in words)", "setting": "CT26; CT26, FIG. 3 and Table 4", "value": "induce cell death"}, {"measurement": "Viability (%)", "setting": "B16F10; B16F10, 10 μM", "value": 68, "unit": "%"}, {"measurement": "Viability (%)", "setting": "B16F10; B16F10, 20 μM", "value": 33, "unit": "%"}, {"measurement": "induction of cell death (in words)", "setting": "B16F10; B16F10, FIG. 3 and Table 4", "value": "induce cell death"}, {"measurement": "change in intracellular calcium level", "setting": "HeLa cells [2]", "value": "calcium influx into the cytosols thereof within less than one min"}, {"measurement": "mitochondrial PTP opening (calcein AM fluorescence)", "setting": "HeLa cells [3]", "value": "fluorescence of mitochondrial calcein AM was quenched"}, {"measurement": "mitochondrial ROS level", "setting": "HeLa cells [4]", "value": "abruptly increased in ROS level just after the cell membrane bubbling"}, {"measurement": "liposome lipid membrane damage (in words)", "setting": "[5]; FIGS. 10A to 10C and Table 6", "value": "higher fluorescence intensity was detected"}, {"measurement": "Relative Fluorescence Intensity", "setting": "[5]; 10 μM", "value": 25, "unit": "%"}, {"measurement": "Relative Fluorescence Intensity", "setting": "[5]; 25 μM", "value": 51, "unit": "%"}, {"measurement": "Counts of membrane pores", "setting": "MDA-MB-231 cells; Length 0.675~0.975, t = 30 sec", "value": 38.03}, {"measurement": "Counts of membrane pores", "setting": "MDA-MB-231 cells; Length 0.675~0.975, t = 2 min", "value": 20.63}, {"measurement": "Counts of membrane pores", "setting": "MDA-MB-231 cells; Length 0.675~0.975, t = 5 min", "value": 14.81}, {"measurement": "Counts of membrane pores", "setting": "MDA-MB-231 cells; Length 0.675~0.975, t = 40 min", "value": 2.5}, {"measurement": "Counts of membrane pores", "setting": "MDA-MB-231 cells; Length 1.025~1.325, t = 30 sec", "value": 43.66}, {"measurement": "Counts of membrane pores", "setting": "MDA-MB-231 cells; Length 1.025~1.325, t = 2 min", "value": 38.1}, {"measurement": "Counts of membrane pores", "setting": "MDA-MB-231 cells; Length 1.025~1.325, t = 5 min", "value": 39.51}, {"measurement": "Counts of membrane pores", "setting": "MDA-MB-231 cells; Length 1.025~1.325, t = 40 min", "value": 22.5}, {"measurement": "Counts of membrane pores", "setting": "MDA-MB-231 cells; Length 1.375~1.675, t = 30 sec", "value": 9.859}, {"measurement": "Counts of membrane pores", "setting": "MDA-MB-231 cells; Length 1.375~1.675, t = 2 min", "value": 20.63}, {"measurement": "Counts of membrane pores", "setting": "MDA-MB-231 cells; Length 1.375~1.675, t = 5 min", "value": 20.99}, {"measurement": "Counts of membrane pores", "setting": "MDA-MB-231 cells; Length 1.375~1.675, t = 40 min", "value": 22.5}, {"measurement": "Counts of membrane pores", "setting": "MDA-MB-231 cells; Length 1.725~2.025, t = 30 sec", "value": 4.225}, {"measurement": "Counts of membrane pores", "setting": "MDA-MB-231 cells; Length 1.725~2.025, t = 2 min", "value": 14.29}, {"measurement": "Counts of membrane pores", "setting": "MDA-MB-231 cells; Length 1.725~2.025, t = 5 min", "value": 13.58}, {"measurement": "Counts of membrane pores", "setting": "MDA-MB-231 cells; Length 1.725~2.025, t = 40 min", "value": 22.5}, {"measurement": "Counts of membrane pores", "setting": "MDA-MB-231 cells; Length 2.075~2.725, t = 30 sec", "value": 2.817}, {"measurement": "Counts of membrane pores", "setting": "MDA-MB-231 cells; Length 2.075~2.725, t = 2 min", "value": 6.349}, {"measurement": "Counts of membrane pores", "setting": "MDA-MB-231 cells; Length 2.075~2.725, t = 5 min", "value": 9.877}, {"measurement": "Counts of membrane pores", "setting": "MDA-MB-231 cells; Length 2.075~2.725, t = 40 min", "value": 22.5}, {"measurement": "Counts of membrane pores", "setting": "MDA-MB-231 cells; Length 2.775<, t = 30 sec", "value": 0}, {"measurement": "Counts of membrane pores", "setting": "MDA-MB-231 cells; Length 2.775<, t = 2 min", "value": 0}, {"measurement": "Counts of membrane pores", "setting": "MDA-MB-231 cells; Length 2.775<, t = 5 min", "value": 1.235}, {"measurement": "Counts of membrane pores", "setting": "MDA-MB-231 cells; Length 2.775<, t = 40 min", "value": 7.5}, {"measurement": "Counts of membrane pores", "setting": "MDA-MB-231 cells; Length >0.625, t = 30 sec", "value": 1.408}, {"measurement": "Counts of membrane pores", "setting": "MDA-MB-231 cells; Length >0.625, t = 2 min", "value": 0}, {"measurement": "Counts of membrane pores", "setting": "MDA-MB-231 cells; Length >0.625, t = 5 min", "value": 0}, {"measurement": "Counts of membrane pores", "setting": "MDA-MB-231 cells; Length >0.625, t = 40 min", "value": 0}, {"measurement": "pore formation on cell membrane (in words)", "setting": "MDA-MB-231 cells; MDA-MB-231, FIG. 10d and Table 7", "value": "larger pores were formed with time"}, {"measurement": "Viability (%)", "setting": "HeLa [6]", "value": 47, "unit": "%"}]}
